Results taken from patent US10711000B2 (Fronthera U.S. Pharmaceuticals LLC, priority 2018, dated 2020).
Read-outs that look alike come from different tables or passages of the source.

Experiments:
[1] = target: T1, Autotaxin (Homo sapiens, UniProt Q13822); assay: LPA formation in pooled human plasma (ex vivo autotaxin inhibition); format: biochemical; details: 2 hours incubation
T1 construct: from tissue; host or cells: pooled human plasma
Method in brief: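 Pooled human plasma incubated 2 h with various compound concentrations; LPA 18:2 and 20:4 quantified by LC/MS/MS (negative-ion MRM, LPA17:0 internal standard) after butanol extraction. Inhibition of LPA formation relative to untreated plasma; IC50 by non-linear regression.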

[2] = Pharmacokinetics after a single oral dose in SD rats; format: in vivo; details: Sprague-Dawley, rat, plasma, single oral dose in 0.5% methylcellulose
Excerpt: (§1) The pharmacokinetics and pharmacodynamics of test compounds after a single oral dose were investigated in SD rats, Beagle dog and Cynomolgus monkey. SD Rats (200-250 g) were purchased from Beijing Vital River Laboratory Animal Technology Co., Ltd. Male Beagle Dog, 6-9 kg, were purchased from Beijing Mashall. Male Cynomolgus monkeys, 3-5 kg, were purchased from Suzhou Xishan Zhongke Drugs Research and Development Co., Ltd. Following arrival, the animals were acclimated for 7 days in individual cages maintained at ambient temperature, 34 to 68% relative humidity, and 12-h light/dark cycles. Just prior to dose administration the rats were fasted overnight with free access to water. Animals were given 10 mL/kg of formulated compound in 0.5% methylcellulose (MC) by oral gavage, and the animals were fed four hours after dosing. The animals were manually restrained at the designated time points (pre-dose, 0.5, 1, 3, 6, 9, 12, and 24 h post-dose) to collect blood. Approximately 120 μL of blood was collected via orbital sinus into K2EDTA tubes. The blood samples were centrifuged at 5000 rpm for 10 min at 4° C. to obtain plasma samples.
To determine the compound concentration in the plasma samples, a 10× calibration standard of compound were prepared by serial dilution in DMSO: 20000, 10000, 5000, 2000, 1000, 500, 200, 100, 50, 20, and 10 ng/mL. 3 μL of calibration standard solution was added into 27.0 μL of blank plasma in 1.5-mL microcentrifuge tubes to generate 1× calibration standards. The 30.0 μL of standards or study plasma was mixed with 200 μL of acetonitrile (containing 5 ng/mL verapamil for internal control) in a 1.5-mL microcentrifuge tube. After vertexing for 1 minute and centrifuging at 10000 rpm for 10 min, 180 μL of supernatant was transferred into a 96-well plate and the compound concentration in the plasma was quantitated using LC/MS/MS together with standards. Briefly, 1 μL of the solutions were injected for LC-MS/MS analysis using an Agilent Zorbax C18 column (50×2.1 mm, 3.5 μm) with mobile phase A [5 mM NH4Ac (0.1% FA)] and phase B [Methanol (0.1% FA)]. Mass spectrometer parameters optimization for compound was performed by infusing standard diluted at 1 μg/mL in water/methanol (1/1, v/v) directly in the ionization source at a flow of 10 μL/min. Quantitative data were acquired in multiple reaction monitoring (MRM) positive APCI mode.

[3] = target: T2, Autotaxin (Rattus norvegicus, UniProt Q64610); assay: Pharmacodynamics: LPA 18:2 inhibition in plasma of SD rats after oral dose; details: single oral dose, LPA18:2 inhibition vs plasma concentration of compound, read-out: In vivo rat IC50 (LPA 18:2) (converted)
T2 construct: from tissue; host or cells: SD rats in vivo; plasma sampled after a single oral dose
Excerpt: as §1
Autotaxin is a secreted phosphodiesterase that converts lysophosphatidylcholine (LPC) into lysophosphatidic acid (LPA), and LPA 18:2 formation was used to evaluate the efficacy of autotaxin inhibitors. Therefore, the LPA 18:2 formation in response to drug administration was analyzed in each time point to assess the pharmacodynamics of test compounds. To determine the LPA18:2 concentration in study plasma, a 10× calibration standard of LPA 18:2 were prepared by serial dilution in butyl alcohol: 20000, 10000, 5000, 2000, 1000, 500, 200, 100, 50, 20, and 10 ng/mL. 3 μL of calibration standard solution was added into 27.0 μL of blank plasma in 1.5-mL microcentrifuge tubes to generate 1× calibration standards. The 30.0 μL of standards or study plasma was added into 1.5-mL microcentrifuge tubes. 200 μL of butyl alcohol (containing 25.0 ng/mL LPA17:0 for internal control) was added into each 1.5-mL microcentrifuge tube containing study plasma or calibration standards. After vortexing for 1 minute and centrifuging at 10000 rpm for 10 min, 180 μL of supernatant was transferred into a 96-well plate and the LPA18:2 concentration in the plasma was quantitated using LC/MS/MS together with standards. Briefly, 8 μL of the solutions were injected for LC-MS/MS analysis using an ACQUITY UPLC BEH C18 column (2.1×50 mm, 1.7 μm) with mobile phase A [20 mM NH4OAC in water (0.1% FA)] and phase B [5 mM NH4OAC in water/0.2% FA in ACN=5:95]. Mass spectrometer parameters optimization for LPA18:2 were performed by infusing standard diluted at 1 μg/mL in butyl Alcohol directly in the ionization source, at a flow of 10 μL/min. Deprotonated molecular ion at m/z 433.2 ([M−H]−) for LPA18:2, and abundant product ion at m/z 152.8 for LPA18:2 were obtained. Quantitative data were acquired in multiple reaction monitoring (MRM) negative electrospray ionization mode
The percentage of LPA18:2 inhibition was plotted against the corresponding concentration of compound and the IC50 was calculated through non-linear regression fitting.

IC50 ([1]; LPA 18:2 by LC/MS/MS, read-out: LPA formation (18:2) (IC50)): ≤ 100 nM
IC50 ([1]; LPA 20:4 by LC/MS/MS, read-out: LPA formation (20:4) (IC50)): ≤ 100 nM
AUC [2]: 1090 ± 544 ng·h/mL
Cmax [2]: 403 ± 341 ng/mL
half-life ([2]; read-out: T½ (converted)): 2.99 ± 3 h
IC50 [3]: 26.8 nM
SMILES: CCn1nc2nc(C)c(N3CC4(CN(C(=O)C5CCOCC5)C4)C3)cc2c1N(C)c1nc(-c2ccc(F)cc2)c(C#N)s1 [Compound 122, 2-((2-ethyl-6-methyl-5-(6-(tetrahydro-2H-pyran-4-carbonyl)-2,6-diazaspiro[3.3]heptan-2-yl)-2H-pyrazolo[3,4-b]pyridin-3-yl)(methyl)amino)-4-(4-fluorophenyl)thiazole-5-carbonitrile]
